Test results as given in patent US10294202B2, “Pyrrolidinones as herbicides” (FMC Corporation, priority 2013, dated 2019).

How the values were obtained:
[1] = tested on: galium; test: Test A postemergence herbicide test; type: in vivo, Galium aparine
Summary of the method: (§1)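 Young potted plants in a loam–sand mix, one- to two-leaf stage and 2–10 cm tall, receive the test chemical postemergence and stay in a greenhouse for approximately 10 days. Injury is then judged by eye against untreated plants, scored 0 (none) to 100 (complete control).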

[2] = tested on: kochia; test: Test A pre-/postemergence herbicide test; type: in vivo, Kochia scoparia
Summary of the method: (§2)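 Greenhouse pot test with pre- and postemergence application of surfactant-containing solvent formulations. Postemergence plants were 2–10 cm, one- to two-leaf stage. Response scored visually after ~10 days, 0 (no effect) to 100 (complete control).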

[3] = tested on: pigweed; test: Test A pre-/postemergence herbicide test; type: in vivo, Amaranthus retroflexus
Summary of the method: as §2

[4] = tested on: giant foxtail; test: Test A pre-/postemergence herbicide test; type: in vivo, Setaria faberii
Summary of the method: as §2

[5] = tested on: barnyardgrass; test: Test A pre-/postemergence herbicide test; type: in vivo, Echinochloa crus-galli
Summary of the method: as §2

[6] = tested on: sedge, umbrella; test: Test B flooded paddy test; type: in vivo, Cyperus difformis; settings: 500 g ai/ha, Flood; scale of 0 to 100 where 0 is no effect and 100 is complete control
Summary of the method: (§3)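 Visual ratings from 0, meaning no effect, up to 100, meaning complete control, were made by comparison with untreated controls 13 to 15 days after treatment. Test compounds went straight into floodwater standing 3 cm over the soil of pots holding 2-leaf seedlings.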

[7] = tested on: corn; test: Test A pre-/postemergence herbicide test; type: in vivo, Zea mays; settings: Postemergence
Summary of the method: as §2

[8] = tested on: ragweed; test: Test A pre-/postemergence herbicide test; type: in vivo, Ambrosia elatior
Summary of the method: as §2

[9] = tested on: ryegrass, Italian; test: Test A pre-/postemergence herbicide test; type: in vivo, Lolium multiflorum
Summary of the method: as §2

[10] = tested on: ducksalad; test: Test B flooded paddy test; type: in vivo, Heteranthera limosa; settings: 500 g ai/ha, Flood; scale of 0 to 100 where 0 is no effect and 100 is complete control
Summary of the method: as §3

[11] = tested on: rice; test: Test B flooded paddy test; type: in vivo, Oryza sativa; settings: 500 g ai/ha, Flood; scale of 0 to 100 where 0 is no effect and 100 is complete control
Summary of the method: as §3

[12] = tested on: wheat; test: Test A pre-/postemergence herbicide test; type: in vivo, Triticum aestivum; settings: Postemergence
Summary of the method: as §2

[13] = tested on: barnyardgrass; test: Test B flooded paddy test; type: in vivo, Echinochloa crus-galli; settings: 500 g ai/ha, Flood; scale of 0 to 100 where 0 is no effect and 100 is complete control
Summary of the method: as §3

[14] = tested on: blackgrass; test: Test A postemergence herbicide test; type: in vivo, Alopecurus myosuroides
Summary of the method: as §1

[15] = 125 g ai/ha, 0 to 100 scale, 0 is no effect, 100 is complete control
[16] = 125 g ai/ha, visual rating, 0 to 100 scale, 0 no effect, 100 complete control, approximately 10 days, preemergence
[17] = Postemergence, 125 g ai/ha, 0 to 100 scale, 0 is no effect, 100 is complete control
[18] = preemergence, 500 g ai/ha, 0 to 100 scale, 0 is no effect and 100 is complete control
[19] = 125 g ai/ha, visual rating on 0 to 100 scale (0 no effect, 100 complete control), approx. 10 days
[20] = 500 g ai/ha, 0 to 100 scale (0 no effect, 100 complete control)
[21] = Postemergence, 125 g ai/ha, visual rating on 0 to 100 scale (0 no effect, 100 complete control), approx. 10 days
[22] = Postemergence, 500 g ai/ha, 0 to 100 scale (0 no effect, 100 complete control)
[23] = Preemergence, 125 g ai/ha, 0 to 100 scale where 0 is no effect and 100 is complete control

O=C1NCC(c2ccc(Cl)cc2)C1C(=O)Nc1cccc(Cl)c1Cl (stereo not drawn) [Compound 221]
0: Plant response rating, Galium [1, 15] | Galium plant response rating (0 to 100 scale, 0 is no effect, 100 is complete control) ([1]; 500 g ai/ha) | Plant response rating, Kochia [2, 16] | Plant response rating, Kochia [2, 17] | Kochia plant response rating (0 to 100 scale, 0 is no effect, 100 is complete control) ([2]; Postemergence, 500 g ai/ha) | Plant response rating, Kochia [2, 18] | Plant response rating, Pigweed [3, 16] | Plant response rating, Pigweed [3, 17] | Pigweed plant response rating (0 to 100 scale, 0 is no effect, 100 is complete control) ([3]; Postemergence, 500 g ai/ha) | Plant response rating, Pigweed [3, 18] | Plant response rating, Foxtail, Giant [4, 17] | Plant response rating, Barnyardgrass [5, 16] | Plant response rating, Barnyardgrass [5, 17] | Barnyardgrass plant response rating (0 to 100 scale, 0 is no effect, 100 is complete control) ([5]; Postemergence, 500 g ai/ha) | Plant response rating, Barnyardgrass [5, 18] | Plant response rating, Sedge, Umbrella [6] | Plant response rating, Corn [7, 15] | Corn plant response rating (0 to 100 scale, 0 is no effect, 100 is complete control) ([7]; 500 g ai/ha) | Plant response rating, Ragweed [8, 16] | Plant response rating, Ragweed [8, 17] | Ragweed plant response rating (0 to 100 scale, 0 is no effect, 100 is complete control) ([8]; Postemergence, 500 g ai/ha) | Plant response rating, Ragweed [8, 18] | Plant response rating, Ryegrass, Italian [9, 16] | Plant response rating, Ryegrass, Italian [9, 17] | Ryegrass, Italian plant response rating (0 to 100 scale, 0 is no effect, 100 is complete control) ([9]; Postemergence, 500 g ai/ha) | Plant response rating, Ryegrass, Italian [9, 18] | Plant response rating, Ducksalad [10] | Plant response rating, Rice [11] | Plant response rating, Wheat [12, 15] | Wheat plant response rating (0 to 100 scale, 0 is no effect, 100 is complete control) ([12]; 500 g ai/ha) | Plant response rating, Barnyardgrass [13] | Plant response rating, Blackgrass [14, 15] | Blackgrass plant response rating (0 to 100 scale, 0 is no effect, 100 is complete control) ([14]; 500 g ai/ha)
60: Plant response rating, Foxtail, Giant [4, 16]
80: Plant response rating, Foxtail, Giant [4, 18]
30: Foxtail, Giant plant response rating (0 to 100 scale, 0 is no effect, 100 is complete control) ([4]; Postemergence, 500 g ai/ha)

O=C1NCC(c2cc3ccccc3s2)C1C(=O)Nc1ccccc1F (stereo not drawn) [Compound 295]
30: Plant response rating, Barnyardgrass [13]
20: Plant response rating, Foxtail, Giant [4, 18]
40: Plant response rating, Ducksalad [10]
0: Plant response rating, Galium [1, 19] | Plant response rating, Kochia [2, 21] | Plant response rating, Kochia [2, 22] | Plant response rating, Kochia [2, 23] | Plant response rating, Kochia [2, 18] | Plant response rating, Pigweed [3, 21] | Plant response rating, Pigweed [3, 22] | Plant response rating, Pigweed [3, 23] | Plant response rating, Pigweed [3, 18] | Plant response rating, Foxtail, Giant [4, 21] | Plant response rating, Foxtail, Giant [4, 22] | Plant response rating, Foxtail, Giant [4, 23] | Plant response rating, Barnyardgrass [5, 21] | Plant response rating, Barnyardgrass [5, 23] | Plant response rating, Sedge, Umbrella [6] | Plant response rating, Corn [7, 19] | Plant response rating, Corn [7, 20] | Plant response rating, Ragweed [8, 21] | Plant response rating, Ragweed [8, 22] | Plant response rating, Ragweed [8, 23] | Plant response rating, Ragweed [8, 18] | Plant response rating, Ryegrass, Italian [9, 21] | Plant response rating, Ryegrass, Italian [9, 22] | Plant response rating, Ryegrass, Italian [9, 23] | Ryegrass, Italian plant response rating ([9]; Preemergence, 500 g ai/ha, visual rating on 0 to 100 scale (0 no effect, 100 complete control)) | Plant response rating, Rice [11] | Plant response rating, Wheat [12, 19] | Plant response rating, Wheat [12, 20] | Plant response rating, Blackgrass [14, 19] | Plant response rating, Blackgrass [14, 20]
50: Plant response rating, Barnyardgrass [5, 22]
70: Plant response rating, Barnyardgrass [5, 18]
10: Plant response rating, Galium [1, 20]
